Laboratory results: US20240217960A1, “TRIAZINE DERIVATIVE AS COVALENT INHIBITORS OF PI3K” (UNIVERSITÄT BASEL, priority 2021, published 2024)
Read-outs that look alike come from different tables or passages of the source.

Tests used:
[1] = molecular target: p110α (PI3Kα) (Homo sapiens, UniProt P42336); experiment: Determination of kinetic constants (kinact, Ki) for p110α by LanthaScreen Technology; format: binding; conditions: for kinact: read-out: kinact PI3Kα; for kinact/KI: read-out: kinact/Ki PI3Kα
Chain of p110α (PI3Kα) (P42336 whole entry): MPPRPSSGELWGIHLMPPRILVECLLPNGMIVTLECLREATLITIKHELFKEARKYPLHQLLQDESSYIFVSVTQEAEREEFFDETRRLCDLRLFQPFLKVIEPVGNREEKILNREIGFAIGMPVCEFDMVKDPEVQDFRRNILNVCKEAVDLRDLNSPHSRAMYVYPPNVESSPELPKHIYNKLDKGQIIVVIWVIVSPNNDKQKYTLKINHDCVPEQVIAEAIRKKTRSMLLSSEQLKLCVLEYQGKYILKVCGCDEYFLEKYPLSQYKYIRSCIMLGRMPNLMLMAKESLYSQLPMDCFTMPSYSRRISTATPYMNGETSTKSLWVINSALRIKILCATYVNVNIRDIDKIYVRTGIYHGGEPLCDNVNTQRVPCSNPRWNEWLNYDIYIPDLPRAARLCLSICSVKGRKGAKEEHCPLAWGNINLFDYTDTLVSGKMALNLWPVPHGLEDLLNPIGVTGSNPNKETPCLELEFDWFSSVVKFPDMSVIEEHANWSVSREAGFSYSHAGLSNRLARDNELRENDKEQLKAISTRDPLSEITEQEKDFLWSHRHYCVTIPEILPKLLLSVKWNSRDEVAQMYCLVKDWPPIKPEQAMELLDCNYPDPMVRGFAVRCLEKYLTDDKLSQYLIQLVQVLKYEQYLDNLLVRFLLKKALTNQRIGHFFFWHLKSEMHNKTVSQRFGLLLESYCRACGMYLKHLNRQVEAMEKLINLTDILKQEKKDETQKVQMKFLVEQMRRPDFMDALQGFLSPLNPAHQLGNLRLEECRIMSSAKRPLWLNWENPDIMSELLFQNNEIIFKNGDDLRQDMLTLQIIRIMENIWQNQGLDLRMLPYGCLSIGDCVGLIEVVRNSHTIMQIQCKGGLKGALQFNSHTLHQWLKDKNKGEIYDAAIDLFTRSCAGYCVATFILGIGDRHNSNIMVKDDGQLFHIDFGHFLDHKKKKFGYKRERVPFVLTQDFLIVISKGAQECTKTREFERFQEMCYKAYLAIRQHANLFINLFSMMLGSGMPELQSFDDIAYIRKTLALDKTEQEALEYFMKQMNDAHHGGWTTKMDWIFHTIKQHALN
Chain of p110α (PI3Kα) (P27986 whole entry partner): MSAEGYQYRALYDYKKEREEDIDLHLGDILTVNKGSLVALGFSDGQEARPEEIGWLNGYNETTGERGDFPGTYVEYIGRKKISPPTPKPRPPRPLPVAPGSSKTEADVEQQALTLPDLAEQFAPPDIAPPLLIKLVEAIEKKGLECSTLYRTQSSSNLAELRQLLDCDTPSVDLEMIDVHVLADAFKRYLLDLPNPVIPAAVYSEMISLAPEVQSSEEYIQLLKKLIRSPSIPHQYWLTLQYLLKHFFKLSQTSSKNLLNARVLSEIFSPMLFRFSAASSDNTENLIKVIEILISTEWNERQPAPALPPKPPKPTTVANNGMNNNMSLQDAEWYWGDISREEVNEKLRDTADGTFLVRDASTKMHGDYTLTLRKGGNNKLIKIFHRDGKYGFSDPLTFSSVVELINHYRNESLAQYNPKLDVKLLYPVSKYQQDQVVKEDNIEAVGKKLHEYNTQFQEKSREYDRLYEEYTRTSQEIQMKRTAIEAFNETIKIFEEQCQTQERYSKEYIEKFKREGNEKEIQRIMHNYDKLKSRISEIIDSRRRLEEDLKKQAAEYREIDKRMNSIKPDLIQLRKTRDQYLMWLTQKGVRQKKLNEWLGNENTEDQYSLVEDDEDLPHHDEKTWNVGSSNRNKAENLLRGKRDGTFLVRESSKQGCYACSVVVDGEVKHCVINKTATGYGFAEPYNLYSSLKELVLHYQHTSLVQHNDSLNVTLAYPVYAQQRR
Protocol: Maximum potential rate of covalent bond formation (kinact) and dissociation constant of the first reversible binding (Ki) of compounds for p110α were determined by LanthaScreen Technology (Life Technologies). The calculation of kinetic parameters was carried out through global fitting for numerical integration by using KinTek Global Kinetic Explorer modelling software^26-31.

[2] = Intrinsic reactivity of the inhibitors (kchem) with βME measured with HPLC; format: physicochemical; conditions: 1 mM inhibitor + 600 mM βME, n = 3
[3] = tested on: pSer473 of PKB/Akt in SKOV3 cells; experiment: In Cell Western cellular PI3K signaling and IC50 determination; format: cell-based; conditions: Homo sapiens, SK-OV-3; SKOV3 cells; 2 or 3 independent measurements; read-out: IC50 pPKB (S473) SKOV3
Protocol: Protein phosphorylation was detected as follows: pSer473 of PKB/Akt with rabbit polyclonal antibody from Cell Signaling Technology (CST) (#4058) by In-Cell Western assays, where 1.2×10^4 SKOV3 cells/well in 96-well plates were plated (Cell Carrier, PerkinElmer) for 24 hours (37° C., 5% CO2), as described in Ref. ^25.

[4] = dissociation constant of the first reversible binding, global fitting with KinTek, read-out: Ki PI3Kα
[5] = maximum potential rate of covalent bond formation, global fitting with KinTek

Compound	IC50 [3]	also measured
C=CC(=O)CCCCC(=O)N1CCN(c2nc(-c3cnc(N)nc3C(F)F)nc(N3CCOCC3)n2)CC1 [Compound 1, 1-(4-(4-(2-amino-4-(difluoromethyl)pyrimidin-5-yl)-6-morpholino-1,3,5-triazin-2-yl)piperazin-1-yl)oct-7-ene-1,6-dione]	–	Ki [1, 4]: 5.87 nM; kinact [1, 5]: 0.0245 s⁻¹; kinact/KI [1]: 4.2e+06 M⁻¹ s⁻¹; kchem (intrinsic reactivity of the inhibitors) [2]: >>1.00 × 10^−1 M^−1 · s^−1
C=CC(=O)N(C)CCCC(=O)N1CCN(c2nc(-c3cnc(N)nc3C(F)F)nc(N3CCOCC3)n2)CC1 [Compound 7, N-(4-(4-(4-(2-amino-4-(difluoromethyl)pyrimidin-5-yl)-6-morpholino-1,3,5-triazin-2-yl)piperazin-1-yl)-4-oxobutyl)-N-methylacrylamide]	–	Ki [1, 4]: 7.22 nM; kinact [1]: 6.9e-05 s⁻¹; kinact/KI [1]: 9600 M⁻¹ s⁻¹; kchem (intrinsic reactivity of the inhibitors) [2]: 0.000228 M⁻¹ s⁻¹
C/C=C/C(=O)N(C)CCCC(=O)N1CCN(c2nc(-c3cnc(N)nc3C(F)F)nc(N3CCOCC3)n2)CC1 [Compound 9, (E)-N-(4-(4-(4-(2-amino-4-(difluoromethyl)pyrimidin-5-yl)-6-morpholino-1,3,5-triazin-2-yl)piperazin-1-yl)-4-oxobutyl)-N-methylbut-2-enamide]	–	Ki ([1]; Ki value determined after 60 min of drug incubation with PI3Kα, 2 independent measurements, read-out: Ki PI3Kα (footnote d)): 5.4 nM; kchem (intrinsic reactivity of the inhibitors) [2]: 3.35e-06 M⁻¹ s⁻¹
CC(C)=CC(=O)NCCCC(=O)N1CCN(c2nc(-c3cnc(N)nc3C(F)F)nc(N3CCOCC3)n2)CC1 [Compound 17, N-(4-(4-(4-(2-amino-4-(difluoromethyl)pyrimidin-5-yl)-6-morpholino-1,3,5-triazin-2-yl)piperazin-1-yl)-4-oxobutyl)-3-methylbut-2-enamide]	–	kchem (intrinsic reactivity of the inhibitors) [2]: <<1.00 × 10^−7 M^−1 · s^−1
CCC(=O)N1CCC(C(=O)NCC(=O)N2CCN(c3nc(-c4cnc(N)nc4C(F)F)nc(N4CCOCC4)n3)CC2)CC1 [Compound 44, N-(2-(4-(4-(2-amino-4-(difluoromethyl)pyrimidin-5-yl)-6-morpholino-1,3,5-triazin-2-yl)piperazin-1-yl)-2-oxoethyl)-1-propionylpiperidine-4-carboxamide]	200 nM	Ki [1, 4]: 2.55 nM
CN(C)C/C=C/C(=O)N1CCC(C(=O)N(C)CC(=O)N2CCN(c3nc(-c4cnc(N)nc4C(F)F)nc(N4CCOCC4)n3)CC2)CC1 [Compound 56, (E)-N-(2-(4-(4-(2-amino-4-(difluoromethyl)pyrimidin-5-yl)-6-morpholino-1,3,5-triazin-2-yl)piperazin-1-yl)-2-oxoethyl)-1-(4-(dimethylamino)but-2-enoyl)-N-methylpiperidine-4-carboxamide]	891 nM	–
CC(C)=CC(=O)CCCC(=O)N1CCC(C(=O)N2CCN(c3nc(-c4cnc(N)nc4C(F)F)nc(N4CCOCC4)n3)CC2)CC1 [Compound 69, 1-(4-(4-(4-(2-amino-4-(difluoromethyl)pyrimidin-5-yl)-6-morpholino-1,3,5-triazin-2-yl)piperazine-1-carbonyl)piperidin-1-yl)-7-methyloct-6-ene-1,5-dione]	31 nM	–
CC(C)CC(=O)CCCC(=O)N1CCC(C(=O)N2CCN(c3nc(-c4cnc(N)nc4C(F)F)nc(N4CCOCC4)n3)CC2)CC1 [Compound 70, 1-(4-(4-(4-(2-amino-4-(difluoromethyl)pyrimidin-5-yl)-6-morpholino-1,3,5-triazin-2-yl)piperazine-1-carbonyl)piperidin-1-yl)-7-methyloctane-1,5-dione]	63 nM	–
CC(C)=CC(=O)CCCC(=O)N1CCC(C(=O)N2CCN(c3nc(-c4cnc(N)cc4C(F)(F)F)nc(N4CCOCC4)n3)CC2)CC1 [Compound 71, 1-(4-(4-(4-(6-amino-4-(trifluoromethyl)pyridin-3-yl)-6-morpholino-1,3,5-triazin-2-yl)piperazine-1-carbonyl)piperidin-1-yl)-7-methyloct-6-ene-1,5-dione]	112 nM	–
CC(C)=CC(=O)CCC(=O)N1CCC(CN2CCN(c3nc(-c4cnc(N)nc4C(F)F)nc(N4CCOCC4)n3)CC2)CC1 [Compound 72, 1-(4-((4-(4-(2-amino-4-(difluoromethyl)pyrimidin-5-yl)-6-morpholino-1,3,5-triazin-2-yl)piperazin-1-yl)methyl)piperidin-1-yl)-6-methylhept-5-ene-1,4-dione]	46 nM	–
CC(C)=CC(=O)CCCC(=O)N1CCC(CN2CCN(c3nc(-c4cnc(N)cc4C(F)(F)F)nc(N4CCOCC4)n3)CC2)CC1 [Compound 78, 1-(4-((4-(4-(6-amino-4-(trifluoromethyl)pyridin-3-yl)-6-morpholino-1,3,5-triazin-2-yl)piperazin-1-yl)methyl)piperidin-1-yl)-7-methyloct-6-ene-1,5-dione]	177 nM	–
CC(C)=CC(=O)CCC(=O)N1CC[C@H](C(=O)N2CCN(c3nc(-c4cnc(N)nc4C(F)F)nc(N4CCOCC4)n3)CC2)C1 [Compound 81, (S)-1-(3-(4-(4-(2-amino-4-(difluoromethyl)pyrimidin-5-yl)-6-morpholino-1,3,5-triazin-2-yl)piperazine-1-carbonyl)pyrrolidin-1-yl)-6-methylhept-5-ene-1,4-dione]	24 nM	–
CC(C)=CC(=O)CCCC(=O)N1CC[C@H](C(=O)N2CCN(c3nc(-c4cnc(N)nc4C(F)F)nc(N4CCOCC4)n3)CC2)C1 [Compound 84, (S)-1-(3-(4-(4-(2-amino-4-(difluoromethyl)pyrimidin-5-yl)-6-morpholino-1,3,5-triazin-2-yl)piperazine-1-carbonyl)pyrrolidin-1-yl)-7-methyloct-6-ene-1,5-dione]	11 nM	–
CC(C)=CC(=O)CCCC(=O)N1CC[C@H](C(=O)N2CCN(c3nc(-c4cnc(N)cc4C(F)(F)F)nc(N4CCOCC4)n3)CC2)C1 [Compound 85, (S)-1-(3-(4-(4-(6-amino-4-(trifluoromethyl)pyridin-3-yl)-6-morpholino-1,3,5-triazin-2-yl)piperazine-1-carbonyl)pyrrolidin-1-yl)-7-methyloct-6-ene-1,5-dione]	73 nM	–
CC(C)=CC(=O)CCC(=O)N1CC[C@@H](C(=O)N2CCN(c3nc(-c4cnc(N)nc4C(F)F)nc(N4CCOCC4)n3)CC2)C1 [Compound 86, (R)-1-(3-(4-(4-(2-amino-4-(difluoromethyl)pyrimidin-5-yl)-6-morpholino-1,3,5-triazin-2-yl)piperazine-1-carbonyl)pyrrolidin-1-yl)-6-methylhept-5-ene-1,4-dione]	17 nM	–
CC(C)=CC(=O)CCCC(=O)N1CC[C@@H](C(=O)N2CCN(c3nc(-c4cnc(N)nc4C(F)F)nc(N4CCOCC4)n3)CC2)C1 [Compound 89, (R)-1-(3-(4-(4-(2-amino-4-(difluoromethyl)pyrimidin-5-yl)-6-morpholino-1,3,5-triazin-2-yl)piperazine-1-carbonyl)pyrrolidin-1-yl)-7-methyloct-6-ene-1,5-dione]	6.7 nM	–
CC(C)=CC(=O)CCCC(=O)N1CC[C@@H](C(=O)N2CCN(c3nc(-c4cnc(N)cc4C(F)(F)F)nc(N4CCOCC4)n3)CC2)C1 [Compound 90, (R)-1-(3-(4-(4-(6-amino-4-(trifluoromethyl)pyridin-3-yl)-6-morpholino-1,3,5-triazin-2-yl)piperazine-1-carbonyl)pyrrolidin-1-yl)-7-methyloct-6-ene-1,5-dione]	93 nM	–
CC(C)=CC(=O)CCC(=O)N1CC(C(=O)N2CCN(c3nc(-c4cnc(N)nc4C(F)F)nc(N4CCOCC4)n3)CC2)C1 [Compound 92, 1-(3-(4-(4-(2-amino-4-(difluoromethyl)pyrimidin-5-yl)-6-morpholino-1,3,5-triazin-2-yl)piperazine-1-carbonyl)azetidin-1-yl)-6-methylhept-5-ene-1,4-dione]	34 nM	–
CC(C)=CC(=O)CCCC(=O)N1CC(C(=O)N2CCN(c3nc(-c4cnc(N)nc4C(F)F)nc(N4CCOCC4)n3)CC2)C1 [Compound 94, 1-(3-(4-(4-(2-amino-4-(difluoromethyl)pyrimidin-5-yl)-6-morpholino-1,3,5-triazin-2-yl)piperazine-1-carbonyl)azetidin-1-yl)-7-methyloct-6-ene-1,5-dione]	12 nM	–
CC(C)=CC(=O)CCC(=O)N1CC(CN2CCN(c3nc(-c4cnc(N)nc4C(F)F)nc(N4CCOCC4)n3)CC2)C1 [Compound 95, 1-(3-((4-(4-(2-amino-4-(difluoromethyl)pyrimidin-5-yl)-6-morpholino-1,3,5-triazin-2-yl)piperazin-1-yl)methyl)azetidin-1-yl)-6-methylhept-5-ene-1,4-dione]	33 nM	–
CC(C)=CC(=O)CCCC(=O)N1CC(CN2CCN(c3nc(-c4cnc(N)nc4C(F)F)nc(N4CCOCC4)n3)CC2)C1 [Compound 97, 1-(3-((4-(4-(2-amino-4-(difluoromethyl)pyrimidin-5-yl)-6-morpholino-1,3,5-triazin-2-yl)piperazin-1-yl)methyl)azetidin-1-yl)-7-methyloct-6-ene-1,5-dione]	17 nM	–
N#C/C(=C/C1CC1)C(=O)N1CCC(COCC(=O)N2CCN(c3nc(-c4cnc(N)nc4C(F)F)nc(N4CCOCC4)n3)CC2)CC1 [Compound 118, (Z)-2-(4-((2-(4-(4-(2-amino-4-(difluoromethyl)pyrimidin-5-yl)-6-morpholino-1,3,5-triazin-2-yl)piperazin-1-yl)-2-oxoethoxy)methyl)piperidine-1-carbonyl)-3-cyclopropylacrylonitrile]	5.96 nM	Ki [1, 4]: 1 nM; kinact [1, 5]: 0.0108 s⁻¹; kinact/KI [1]: 1.08e+07 M⁻¹ s⁻¹
